Results: patent publication US6413982B1, “4-substituted quinoline derivatives” (Neurogen Corporation, priority 1999, dated 2002)

Target: T1, NK-3 receptor (Homo sapiens, UniProt P29371)
T1 construct: expressed in transfected cells; total cellular membranes
T1 sequence (P29371 1-465): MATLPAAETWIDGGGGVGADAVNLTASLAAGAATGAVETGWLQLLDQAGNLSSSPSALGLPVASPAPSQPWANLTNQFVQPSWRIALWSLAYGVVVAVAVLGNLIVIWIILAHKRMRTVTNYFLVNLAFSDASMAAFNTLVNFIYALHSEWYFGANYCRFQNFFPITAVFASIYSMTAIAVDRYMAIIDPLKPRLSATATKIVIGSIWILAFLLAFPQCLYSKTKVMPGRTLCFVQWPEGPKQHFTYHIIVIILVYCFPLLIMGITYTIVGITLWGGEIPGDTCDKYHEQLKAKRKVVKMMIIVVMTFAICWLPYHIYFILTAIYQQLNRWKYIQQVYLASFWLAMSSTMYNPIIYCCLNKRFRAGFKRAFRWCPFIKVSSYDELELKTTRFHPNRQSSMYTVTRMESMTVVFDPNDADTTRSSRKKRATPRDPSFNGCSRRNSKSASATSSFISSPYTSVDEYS
Assay: Assay for NK-3 receptor binding activity
Conditions: displacement of 125I-methylPhe7-neurokinin B, membranes of CHO cells expressing cloned human NK-3 receptor, 2 hours at 4° C.
Method: The following assay is a standard assay for NK-3 receptor binding activity. Assays are performed as described in Krause et al (Proc. Natl. Acad. Sci. USA 94: 310-315, 1997). The NK-3 receptor complementary DNA is cloned from human hypothalamic RNA using standard procedures. The receptor cDNA is inserted into the expression vector pM^2 to transfect the mammalian Chinese hamster ovary cell line, and a stably expressing clonal cell line is isolated, characterized and used for the current experiments. Cells are grown in minimal essential medium alpha containing 10% fetal bovine serum and 250 μg/ml G418. Cells are liberated from cell culture plates with No-zyme (PBS base, JRH Biosciences), and harvested by low speed centrifugation. […]
Receptor binding assays contain a total volume of 200 μl containing 50 μg membrane protein, 0.05-0.15 nM 125I-methylPhe7-neurokinin B, drug or blocker in TBS containing 1.0 mg/ml bovine serum albumen, 0.2 mg/ml bacitracin, 20 μg/ml leupeptin and 20 μg/ml chymostatin. […] After filtration of the incubation mixture, filters are rinsed 4 times with ice-cold TBS containing 0.01% sodium dodecyl sulfate and radioactivity is quantitated in a β-plate scintillation counter. […] Data are collected in duplicate determinations, averaged, and the percent inhibition of total specific binding is calculated. […]

Structure (SMILES)	IC50
CCC1(c2ccccc2)CN=C(c2c(C)c(-c3ccccc3)nc3ccccc23)N1 (centres unmarked) [Example 2]	0.3 nM
CCC1(c2ccccc2)CN=C(c2c(OC)c(-c3ccccc3)nc3ccccc23)N1 (centres unmarked) [Example 1, 5-Ethyl-5-phenyl-2-(3-methoxy-2-phenylquinolin-4-yl)-imidazoline]	19 nM
